{
  "source": "ChEMBL document CHEMBL1201862",
  "about": "“PubChem BioAssay data set” (2004)",
  "key": {"[1]": {"test": "inhibitors of firefly luciferase expression or activity, dose response, H4 neuroglioma cells, luminescence (AID 1990)", "type": "functional, cell-based"}, "[2]": {"test": "Luminescence Cell-Based Dose Response HTS to Identify Inhibitors of 5'UTR Stem-Loop Driven Prion Protein mRNA Translation in H4 Neuroglioblastoma Cells. [Related pubchem assays: 1827 (Project Summary), 1813 (Primary HTS)]", "type": "functional"}, "[3]": {"test": "inhibitors of SNCA 5'UTR-driven reporter translation, confirmation, H4 neuroglioma cells, luminescence (AID 1988)", "type": "functional, cell-based"}, "[4]": {"target": "T1, Rac GTPase-activating protein 1 (Homo sapiens, UniProt Q9H0H5)", "T1 sequence (Q9H0H5 whole entry)": "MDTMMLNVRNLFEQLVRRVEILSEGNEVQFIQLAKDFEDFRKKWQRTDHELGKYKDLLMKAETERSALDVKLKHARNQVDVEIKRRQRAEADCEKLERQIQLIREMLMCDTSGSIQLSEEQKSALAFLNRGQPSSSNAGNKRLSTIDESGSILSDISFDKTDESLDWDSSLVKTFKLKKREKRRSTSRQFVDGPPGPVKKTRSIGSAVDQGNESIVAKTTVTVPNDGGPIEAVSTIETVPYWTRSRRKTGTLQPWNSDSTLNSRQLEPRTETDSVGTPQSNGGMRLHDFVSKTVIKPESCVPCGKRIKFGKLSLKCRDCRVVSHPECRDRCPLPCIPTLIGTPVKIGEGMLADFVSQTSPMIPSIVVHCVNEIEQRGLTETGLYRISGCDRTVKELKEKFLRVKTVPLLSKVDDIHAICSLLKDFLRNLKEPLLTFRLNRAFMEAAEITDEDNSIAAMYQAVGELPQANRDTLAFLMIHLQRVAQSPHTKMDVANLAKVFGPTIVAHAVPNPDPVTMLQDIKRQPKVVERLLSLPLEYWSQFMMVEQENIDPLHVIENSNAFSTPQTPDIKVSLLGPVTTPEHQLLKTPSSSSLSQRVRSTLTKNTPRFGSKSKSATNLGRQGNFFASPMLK", "test": "MgcRacGAP GTPase-activating activity inhibitors, confirmation, biochemical, ADP Hunter fluorescence, primary and confirmatory (AID 624330)", "type": "functional"}, "[5]": {"test": "growth suppression of PTEN-null colon cells, dose response, cell-based, HCT116 PTEN knockout (AID 1047);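 also: HCT116 colon tumor cells with PTEN knocked out; cells exposed to compound for 60 hours before readout; potency for loss of cell viability measured by luminescence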", "type": "functional"}, "[6]": {"test": "growth suppression of beta-catenin-knockout colon cells, dose response, cell-based, HCT116, human colon tumor (AID 1045);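 also: HCT116 colon tumor cells with beta catenin knocked out; cells exposed to compound for 60 hours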", "type": "functional"}, "[7]": {"test": "Luminescence Cell-Based Dose Retest to Confirm Inhibitors of Cancer Stem Cells. [Related pubchem assays (depositor defined):AID2717, AID2721]", "type": "functional", "conditions": "Homo sapiens"}, "Cytochrome P450 2C19": {"target": "Cytochrome P450 2C19 (Homo sapiens, UniProt P33261)", "sequence (P33261 whole entry)": "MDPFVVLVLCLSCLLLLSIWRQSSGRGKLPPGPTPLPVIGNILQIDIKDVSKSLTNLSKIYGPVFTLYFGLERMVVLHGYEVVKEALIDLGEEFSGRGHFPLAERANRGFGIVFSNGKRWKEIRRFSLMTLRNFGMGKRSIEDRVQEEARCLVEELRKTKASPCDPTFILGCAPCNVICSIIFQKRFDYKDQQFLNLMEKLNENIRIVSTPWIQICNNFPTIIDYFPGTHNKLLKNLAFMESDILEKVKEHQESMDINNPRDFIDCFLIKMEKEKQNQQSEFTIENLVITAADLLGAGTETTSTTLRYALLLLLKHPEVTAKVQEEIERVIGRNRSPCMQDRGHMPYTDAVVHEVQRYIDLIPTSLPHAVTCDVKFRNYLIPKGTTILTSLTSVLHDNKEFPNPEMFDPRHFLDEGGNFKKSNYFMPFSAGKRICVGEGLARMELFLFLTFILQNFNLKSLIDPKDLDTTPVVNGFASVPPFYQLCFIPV", "test": "Cytochrome panel assay with activity outcomes. Panel member name: p450-cyp2c19 Compounds with AC50 equal or less than 10 uM are considered active", "type": "functional"}, "Cytochrome P450 2D6": {"target": "Cytochrome P450 2D6 (Homo sapiens, UniProt P10635)", "sequence (P10635 whole entry)": "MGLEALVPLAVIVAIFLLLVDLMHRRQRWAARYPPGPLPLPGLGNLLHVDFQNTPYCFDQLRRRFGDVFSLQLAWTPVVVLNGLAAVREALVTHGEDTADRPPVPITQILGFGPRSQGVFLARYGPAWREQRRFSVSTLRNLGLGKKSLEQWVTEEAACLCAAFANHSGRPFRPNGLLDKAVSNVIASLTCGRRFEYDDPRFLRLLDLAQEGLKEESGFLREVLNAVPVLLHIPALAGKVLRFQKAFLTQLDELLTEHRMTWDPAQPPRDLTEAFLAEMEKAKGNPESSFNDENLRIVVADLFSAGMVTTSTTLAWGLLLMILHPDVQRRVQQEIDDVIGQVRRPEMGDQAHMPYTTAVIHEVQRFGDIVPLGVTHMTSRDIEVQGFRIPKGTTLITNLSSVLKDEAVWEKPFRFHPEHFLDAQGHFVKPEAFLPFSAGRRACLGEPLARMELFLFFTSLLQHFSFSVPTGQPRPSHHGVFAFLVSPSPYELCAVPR"}, "Cytochrome P450 1A2": {"target": "T2, Cytochrome P450 1A2 (Homo sapiens, UniProt P05177)", "T2 sequence (P05177 whole entry)": "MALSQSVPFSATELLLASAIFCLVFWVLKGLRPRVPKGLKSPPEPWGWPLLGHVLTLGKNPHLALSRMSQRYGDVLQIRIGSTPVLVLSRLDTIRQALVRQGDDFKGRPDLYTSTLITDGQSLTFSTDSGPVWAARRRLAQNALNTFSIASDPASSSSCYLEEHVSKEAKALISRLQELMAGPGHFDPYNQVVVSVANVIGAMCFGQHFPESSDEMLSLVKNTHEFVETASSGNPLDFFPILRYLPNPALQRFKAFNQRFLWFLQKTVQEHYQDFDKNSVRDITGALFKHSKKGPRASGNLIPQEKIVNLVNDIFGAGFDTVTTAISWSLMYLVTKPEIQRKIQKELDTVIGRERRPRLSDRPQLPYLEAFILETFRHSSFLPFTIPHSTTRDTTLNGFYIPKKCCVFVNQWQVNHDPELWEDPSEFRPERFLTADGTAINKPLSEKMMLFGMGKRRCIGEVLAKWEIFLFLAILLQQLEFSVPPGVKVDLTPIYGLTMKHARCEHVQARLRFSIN"}, "Cytochrome P450 3A4": {"target": "Cytochrome P450 3A4 (Homo sapiens, UniProt P08684)", "sequence (P08684 whole entry)": "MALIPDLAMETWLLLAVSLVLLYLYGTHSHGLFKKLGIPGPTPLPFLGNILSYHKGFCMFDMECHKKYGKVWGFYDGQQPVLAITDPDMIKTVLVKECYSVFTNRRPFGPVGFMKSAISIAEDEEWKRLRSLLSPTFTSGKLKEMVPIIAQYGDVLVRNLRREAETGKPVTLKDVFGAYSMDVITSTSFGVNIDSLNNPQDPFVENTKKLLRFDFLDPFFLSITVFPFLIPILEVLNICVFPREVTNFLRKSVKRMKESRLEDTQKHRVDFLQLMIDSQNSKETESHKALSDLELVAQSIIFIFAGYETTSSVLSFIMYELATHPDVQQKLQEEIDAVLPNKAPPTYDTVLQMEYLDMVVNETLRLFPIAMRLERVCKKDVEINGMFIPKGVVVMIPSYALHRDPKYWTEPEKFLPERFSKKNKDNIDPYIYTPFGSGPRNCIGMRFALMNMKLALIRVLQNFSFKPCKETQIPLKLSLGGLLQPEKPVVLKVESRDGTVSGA"}, "[8]": {"tested_on": "Streptococcus sp. 'group A'", "test": "growth inhibition of control SK(-) GAS strain, dose response, counter-screen for streptokinase expression inhibitor project, luminescence, kanamycin, BacTiterGlo, confirmation (AID 1900)", "type": "functional, organism-based"}, "Streptococcus": {"tested_on": "Streptococcus", "test": "Group A Streptococcus viability loss, dose response, counter-screen for streptokinase expression inhibitor project, luminescence, BacTiterGlo (AID 1915);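 also: potency for reduction of bacterial viability or growth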", "type": "functional, organism-based"}, "[9]": {"target": "T3, Heat shock factor protein 1 (Mus musculus, UniProt P38532)", "T3 sequence (P38532 whole entry)": "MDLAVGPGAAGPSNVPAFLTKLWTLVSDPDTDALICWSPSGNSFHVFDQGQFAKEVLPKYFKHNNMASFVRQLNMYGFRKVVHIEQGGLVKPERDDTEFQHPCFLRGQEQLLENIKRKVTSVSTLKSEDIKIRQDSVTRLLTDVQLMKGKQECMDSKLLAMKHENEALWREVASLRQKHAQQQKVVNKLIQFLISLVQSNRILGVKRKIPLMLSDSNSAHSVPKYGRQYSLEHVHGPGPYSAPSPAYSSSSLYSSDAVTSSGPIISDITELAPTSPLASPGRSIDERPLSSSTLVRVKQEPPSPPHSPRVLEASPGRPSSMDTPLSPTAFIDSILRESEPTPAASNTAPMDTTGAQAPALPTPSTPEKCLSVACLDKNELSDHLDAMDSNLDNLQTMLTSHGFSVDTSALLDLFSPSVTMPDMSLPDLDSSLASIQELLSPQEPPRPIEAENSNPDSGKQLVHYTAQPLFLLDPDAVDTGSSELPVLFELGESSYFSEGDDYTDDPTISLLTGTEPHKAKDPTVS", "test": "inhibition of MG132-induced HSE-luciferase signal, confirmation, cell-based, NIH3T3, luminescence, dose retest (AID 2382);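 also: NIH3T3 fibroblasts with HSF1-driven luciferase reporter stressed by proteasome inhibitor MG132; luminescence from HSF1-driven luciferase expression after 8 hours of MG132 stress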", "type": "functional"}},
  "note": "Calls of active or inactive are those of the source.",
  "data": [
    {"smiles": "O=c1c2ccc([N+](=O)[O-])c3cccc(c32)c2nc3ccccc3n12", "values": [
      {"measurement": "EC50", "setting": "[1]", "value": "< 0.1 µM (active)"},
      {"measurement": "EC50", "setting": "[2]", "value": "< 0.1 µM (active)"},
      {"measurement": "EC50", "setting": "[3]", "value": "< 0.1 µM (active)"}
    ]},
    {"smiles": "Cc1ccccc1CN1CCN(C(=O)c2cccc3ccccc23)CC1", "values": [
      {"measurement": "IC50", "setting": "[4]", "value": "215 µM (active)"}
    ]},
    {"smiles": "COCCNC(=S)Nc1cc(OC)c(OC)cc1C#N", "values": [
      {"measurement": "IC50", "setting": "[4]", "value": "204 µM (active)"}
    ]},
    {"smiles": "COc1ccc(C2c3c(ncn(Cc4ccco4)c3=N)Oc3ccc4ccccc4c32)cc1", "note": "(centres undefined)", "values": [
      {"measurement": "EC50", "setting": "[5]", "value": "9.97 µM (active)"},
      {"measurement": "EC50", "setting": "[6]", "value": "8.89 µM (active)"},
      {"measurement": "AC50", "setting": "[7]", "value": "4.48 µM (active)"}
    ]},
    {"smiles": "O=C(c1cccc(F)c1)N1CCC2(CCN(Cc3ccncc3)CC2)CC1", "values": [
      {"measurement": "AC50", "setting": "Cytochrome P450 2C19; read-out: AC50", "value": "25.1 µM (inconclusive)"},
      {"measurement": "AC50", "setting": "Cytochrome P450 2D6", "value": "12.6 µM (inconclusive)"},
      {"measurement": "AC50", "setting": "Cytochrome P450 1A2", "value": "12.6 µM (inconclusive)"},
      {"measurement": "AC50", "setting": "Cytochrome P450 3A4", "value": "15.8 µM (inconclusive)"}
    ]},
    {"smiles": "C=C(C)COc1ccc(-c2[nH]nc(C)c2-c2ccc(Br)cc2)c(O)c1", "values": [
      {"measurement": "EC50", "setting": "[8]", "value": "2.99 µM (active)"},
      {"measurement": "EC50", "setting": "Streptococcus", "value": "4.72 µM (active)"},
      {"measurement": "AC50", "setting": "[7]", "value": "0.692 µM (active)"}
    ]},
    {"smiles": "O=c1c(-c2ccccc2)c(O)c2cccc3c2n1CCC3", "values": [
      {"measurement": "AC50", "setting": "Cytochrome P450 1A2", "value": "11.2 µM (inconclusive)"}
    ]},
    {"smiles": "Cc1cc(SC(C)C(=O)NCC(=O)Nc2ccc(F)c(F)c2F)nc2ccccc12", "note": "(centres undefined)", "values": [
      {"measurement": "EC50", "setting": "[1]", "value": "> 120 µM (not active)"},
      {"measurement": "EC50", "setting": "[2]", "value": "92 µM (active)"},
      {"measurement": "EC50", "setting": "[3]", "value": "18 µM (active)"}
    ]},
    {"smiles": "COc1cc(/C=C/C(=O)OCC(=O)N2CCN(C(=O)c3ccco3)CC2)ccc1O", "values": [
      {"measurement": "IC50", "setting": "[4]", "value": "44.8 µM (active)"}
    ]},
    {"smiles": "CC(=O)[C@H](C(=N)C#N)C(=O)Nc1ccccc1", "values": [
      {"measurement": "AC50", "setting": "Cytochrome P450 2C19", "value": "inconclusive"},
      {"measurement": "AC50", "setting": "Cytochrome P450 1A2", "value": "6.31 µM (inconclusive)"}
    ]},
    {"smiles": "CN(C)C(=O)/C(C#N)=C\\c1cc(Br)c(Sc2ccc(Cl)cc2)o1", "values": [
      {"measurement": "AC50", "setting": "[7]", "value": "4.82 µM (active)"}
    ]},
    {"smiles": "O=C(O)c1ccc(Oc2nc3ccccc3s2)cc1", "values": [
      {"measurement": "AC50", "setting": "Cytochrome P450 1A2", "value": "3.16 µM (inconclusive)"}
    ]},
    {"smiles": "O=c1c(-c2cccs2)nc2cnc(N3CCOCC3)nc2n1Cc1cccs1", "values": [
      {"measurement": "AC50", "setting": "Cytochrome P450 1A2", "value": "15.8 µM (inconclusive)"},
      {"measurement": "AC50", "setting": "Cytochrome P450 3A4", "value": "10 µM (inconclusive)"}
    ]},
    {"smiles": "CCCCNC(=O)CN1C(=O)NC2(CCCc3ccccc32)C1=O", "note": "(centres undefined)", "values": [
      {"measurement": "AC50", "setting": "Cytochrome P450 2C19; read-out: AC50", "value": "31.6 µM (inconclusive)"},
      {"measurement": "AC50", "setting": "Cytochrome P450 1A2", "value": "25.1 µM (inconclusive)"}
    ]},
    {"smiles": "COc1ccc(-c2c[nH]nc2-c2ccc(O)cc2O)cc1OC", "values": [
      {"measurement": "IC50", "setting": "[4]", "value": "60.2 µM (active)"}
    ]},
    {"smiles": "C#CCOCCOCCOCCNc1nc(N2CCN(C(=O)CCCCCCCCCCNC(=O)Cn3cc(C[C@@H](C)O)nn3)CC2)nc(N2CCN(C(=O)CCCCCCCCCCNC(=O)[C@@H]([C@H](C)O)n3cc(C)nn3)CC2)n1", "values": [
      {"measurement": "AC50", "setting": "[7]", "value": "4.67 µM (active)"}
    ]},
    {"smiles": "Cc1[nH]n(-c2ccc([N+](=O)[O-])cc2)c(=O)c1/C=N/CCN1CCN(C(=O)C(C)C)CC1", "values": [
      {"measurement": "EC50", "setting": "[9]", "value": "> 195 µM (not active)"},
      {"measurement": "AC50", "setting": "[7]", "value": "4.61 µM (active)"}
    ]},
    {"smiles": "Oc1ccc(/N=C(\\S)Nc2ccc(O)cc2)cc1", "values": [
      {"measurement": "IC50", "setting": "[4]", "value": "41.7 µM (active)"}
    ]},
    {"smiles": "COC(=O)C1=C(C)NC(C)=C(C(=O)OC(C)C)C1c1cccc2nonc12", "note": "(centres undefined) [ISRADIPINE]", "values": [
      {"measurement": "AC50", "setting": "Cytochrome P450 1A2", "value": "31.6 µM (inconclusive)"}
    ]}
  ]
}
